In patent US4918054A, “Antibiotics called `chloropolysporins B and C`, a process for their preparation, and their therapeutic and veterinary use” (Sankyo Company Limited, priority 1985, dated 1990):
Values after ≈ are worked out from the molar mass of the structure shown.

What was measured:
[1] = test system: Fusobacterium necrophorum; assay: MIC against anaerobic bacteria, GAM agar medium; assay type: cell-based
[2] = test system: Staphylococcus epidermidis SANK 71575; assay: MIC, two-fold agar dilution method, Mueller-Hinton agar; assay type: cell-based
[3] = test system: Enterococcus faecalis SANK 71778; assay: as above; assay type: cell-based
[4] = test system: Bacillus subtilis PCI 219; assay: as above; assay type: cell-based
[5] = test system: Mycobacterium smegmatis ATCC 607; assay: as above; assay type: cell-based
[6] = test system: Clostridium perfringens; assay type: cell-based; conditions: anaerobic, GAM agar
[7] = test system: Bacteroides fragilis; assay: MIC against anaerobic bacteria, GAM agar medium; assay type: cell-based
[8] = test system: Clostridium symbiosum; assay: MIC against anaerobic bacteria, GAM agar medium; assay type: cell-based
[9] = test system: Proteus mirabilis SANK 70461; assay: MIC, two-fold agar dilution method, Mueller-Hinton agar; assay type: cell-based
[10] = test system: Escherichia coli NIHJ JC-2; assay: as above; assay type: cell-based
[11] = test system: Klebsiella pneumoniae PCI 602; assay: as above; assay type: cell-based
[12] = test system: Clostridium ramosum; assay: MIC against anaerobic bacteria, GAM agar medium; assay type: cell-based
[13] = test system: Serratia marcescens SANK 73060; assay: MIC, two-fold agar dilution method, Mueller-Hinton agar; assay type: cell-based
[14] = test system: Staphylococcus aureus SANK 70175; assay: as above; assay type: cell-based
[15] = test system: Pseudomonas aeruginosa NCTC 10490; assay: as above; assay type: cell-based
[16] = test system: Peptostreptococcus parvulus; assay: MIC against anaerobic bacteria, GAM agar medium; assay type: cell-based
[17] = test system: Eubacterium cylindroides; assay: MIC against anaerobic bacteria, GAM agar medium; assay type: cell-based
[18] = test system: Propionibacterium acnes; assay: MIC against anaerobic bacteria, GAM agar medium; assay type: cell-based
[19] = test system: Peptostreptococcus saccharoliticus; assay: MIC against anaerobic bacteria, GAM agar medium; assay type: cell-based
[20] = Solubility in solvents; assay type: physicochemical
[21] = test system: Staphylococcus aureus FDA 209P JC-1; assay: MIC, two-fold agar dilution method, Mueller-Hinton agar; assay type: cell-based
[22] = test system: Clostridium difficile; assay: MIC against anaerobic bacteria, GAM agar medium; assay type: cell-based
Experimental: The minimal inhibitory concentrations (MIC) of chloropolysporins B and C against various gram-positive and gram-negative bacteria were determined by the two-fold agar dilution method, using a Mueller-Hinton agar medium (produced by Difco); the MIC against anaerobic bacteria was determined using a GAM agar medium (produced by Nissui).

[23] = test system: Staphylococcus aureus Smith; assay: MIC, two-fold agar dilution method, Mueller-Hinton agar; assay type: cell-based

| Compound | MIC [1] [µg/mL] | MIC [2] [µg/mL] | MIC [3] [µg/mL] | MIC [4] [µg/mL] | MIC [5] [µg/mL] | MIC [6] [µg/mL] | MIC [7] [µg/mL] | MIC [8] [µg/mL] | MIC [9] [µg/mL] | MIC [10] [µg/mL] | MIC [11] [µg/mL] | MIC [12] [µg/mL] | MIC [13] [µg/mL] | MIC [14] [µg/mL] | MIC [15] [µg/mL] | MIC [16] [µg/mL] | MIC [17] [µg/mL] | MIC [18] [µg/mL] | MIC [19] [µg/mL] | solubility in acetone ([20]; as its sulfate) | also measured |
| --- | --- | --- | --- | --- | --- | --- | --- | --- | --- | --- | --- | --- | --- | --- | --- | --- | --- | --- | --- | --- | --- |
| CNC(C(=O)NC1C(=O)NC(c2ccc(O)c(Cl)c2)C(=O)NC2C(=O)NC3C(=O)NC(C(=O)NC(C(=O)O)c4cc(O)cc(O)c4-c4cc3ccc4O)C(OC3CC(N)C(O)C(C)O3)c3ccc(c(Cl)c3)Oc3cc2cc(c3OC2OC(CO)C(O)C(O)C2O)Oc2ccc(cc2Cl)C1OC1OC(CO)C(O)C(O)C1O)c1ccc(OC2OC(C)C(O)C(O)C2O)cc1 (stereo not shown) [Chloropolysporin B, chloropolysporin B] | > 100 | 3.13 (≈ 1.69 µM) | 1.56 (≈ 0.844 µM) | 0.78 (≈ 0.422 µM) | 25.0 (≈ 13.5 µM) | 0.20 (≈ 0.108 µM) | > 100 | 1.56 (≈ 0.844 µM) | > 100 | > 100 | > 100 | 1.56 (≈ 0.844 µM) | > 100 | 3.13 (≈ 1.69 µM) | > 100 | 0.78 (≈ 0.422 µM) | 6.25 (≈ 3.38 µM) | 0.78 (≈ 0.422 µM) | 6.25 (≈ 3.38 µM) | sparingly soluble | solubility in benzene ([20]; as its sulfate): insoluble; solubility in chloroform ([20]; as its sulfate): insoluble; solubility in ethyl acetate ([20]; as its sulfate): insoluble; solubility in methanol ([20]; as its sulfate): soluble; solubility in water ([20]; as its sulfate): soluble; solubility in water ([20]; free bases): insoluble in water; MIC [21]: 1.56 µg/mL (≈ 0.844 µM); MIC [22]: 0.78 µg/mL (≈ 0.422 µM); MIC [23]: 12.5 µg/mL (≈ 6.76 µM) |
| CNC(C(=O)NC1C(=O)NC(c2ccc(O)c(Cl)c2)C(=O)NC2C(=O)NC3C(=O)NC(C(=O)NC(C(=O)O)c4cc(O)cc(O)c4-c4cc3ccc4O)C(OC3CC(N)C(O)C(C)O3)c3ccc(c(Cl)c3)Oc3cc2cc(c3OC2OC(CO)C(O)C(O)C2O)Oc2ccc(cc2Cl)C1OC1OC(CO)C(O)C(O)C1O)c1ccc(O)cc1 (stereo not shown) [Chloropolysporin C, chloropolysporin C] | > 100 | 3.13 (≈ 1.84 µM) | 1.56 (≈ 0.916 µM) | 0.78 (≈ 0.458 µM) | 12.5 (≈ 7.34 µM) | 0.10 (≈ 0.0587 µM) | > 100 | 0.39 (≈ 0.229 µM) | > 100 | > 100 | > 100 | 1.56 (≈ 0.916 µM) | > 100 | 1.56 (≈ 0.916 µM) | > 100 | 0.39 (≈ 0.229 µM) | 3.13 (≈ 1.84 µM) | 0.39 (≈ 0.229 µM) | 3.13 (≈ 1.84 µM) | sparingly soluble | solubility in benzene ([20]; as its sulfate): insoluble; solubility in chloroform ([20]; as its sulfate): insoluble; solubility in ethyl acetate ([20]; as its sulfate): insoluble; solubility in methanol ([20]; as its sulfate): soluble; solubility in water ([20]; as its sulfate): soluble; solubility in water ([20]; free bases): insoluble in water; MIC [21]: 1.56 µg/mL (≈ 0.916 µM); MIC [22]: 0.39 µg/mL (≈ 0.229 µM); MIC [23]: 6.25 µg/mL (≈ 3.67 µM) |
